#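 Method: 48-hour compound exposure of cells in 96-well plates, five concentrations, linear interpolation of endpoints. GI50 is the concentration that inhibits growth by half.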 Calls of active or inactive are those of the source. Cut-off read from the data, not from the text of the source: active = GI50 up to about 1.1 µM and inactive = higher.
# Columns and labels:
# Test in all cases: NCI anticancer screen, dose series, 48 h
# BT-549 = tested on: BT-549
# OVCAR-4 = tested on: OVCAR-4
# HOP-92 = tested on: HOP-92
# SNB-19 = tested on: SNB-19
# UACC-257 = tested on: UACC-257
# SN12C = tested on: SN12C
# TK-10 = tested on: TK-10
# SK-MEL-5 = tested on: SK-MEL-5
# COLO 205 = tested on: COLO 205
# HOP-62 = tested on: HOP-62
# OVCAR-3 = tested on: OVCAR-3
# MDA-MB-231 = tested on: MDA-MB-231
# UO-31 = tested on: UO-31
# SNB-75 = tested on: SNB-75
# 786-0 = tested on: 786-0
# NCI-H23 = tested on: NCI-H23
# T47D = tested on: T47D
# DU-145 = tested on: DU-145
# M14 = tested on: M14
# OVCAR-5 = tested on: OVCAR-5
# HCT-116 = tested on: HCT-116
# LOX IMVI = tested on: LOX IMVI
# SK-MEL-28 = tested on: SK-MEL-28
# SK-MEL-2 = tested on: SK-MEL-2
# KM12 = tested on: KM12
# MCF7 = tested on: MCF7
# PC-3 = tested on: PC-3
# SW-620 = tested on: SW-620
# CAKI-1 = tested on: CAKI-1
# MDA-MB-435 = tested on: MDA-MB-435
# EKVX = tested on: EKVX
# HL-60 = tested on: HL-60
# NCI-H226 = tested on: NCI-H226
# HCT-15 = tested on: HCT-15
# NCI/ADR-RES = tested on: NCI/ADR-RES
# NCI-H460 = tested on: NCI-H460
# ACHN = tested on: ACHN
# HCC 2998 = tested on: HCC 2998
# A549 = tested on: A549
# SF-295 = tested on: SF-295
# SF-539 = tested on: SF-539
# U-251 = tested on: U-251
# IGROV-1 = tested on: IGROV-1
# OVCAR-8 = tested on: OVCAR-8
# UACC-62 = tested on: UACC-62
# HT-29 = tested on: HT-29
# SK-OV-3 = tested on: SK-OV-3
# CCRF-CEM = tested on: CCRF-CEM
# A498 = tested on: A498
# RPMI-8226 = tested on: RPMI-8226
# RXF 393 = tested on: RXF 393
# MOLT-4 = tested on: MOLT-4
# SR = tested on: SR
# MDA-N = tested on: MDA-N
# K562 = tested on: K562
# SF-268 = tested on: SF-268
# Malme-3M = tested on: Malme-3M
smiles,measurement,setting,value
CC1=CC(=O)/C(=C/Nc2nc(-c3cccc([N+](=O)[O-])c3)cs2)C(=O)O1,GI50,BT-549,21.9 µM (inactive)
same,GI50,OVCAR-4,> 100 µM (inactive)
same,GI50,HOP-92,> 100 µM (inactive)
same,GI50,SNB-19,> 100 µM (inactive)
same,GI50,UACC-257,> 100 µM (inactive)
same,GI50,SN12C,66.5 µM (inactive)
same,GI50,TK-10,1.93 µM (inactive)
same,GI50,SK-MEL-5,54.2 µM (inactive)
same,GI50,COLO 205,85.7 µM (inactive)
same,GI50,HOP-62,> 100 µM (inactive)
same,GI50,OVCAR-3,> 100 µM (inactive)
same,GI50,MDA-MB-231,57.4 µM (inactive)
same,GI50,UO-31,29.9 µM (inactive)
same,GI50,SNB-75,35.9 µM (inactive)
same,GI50,786-0,30.8 µM (inactive)
same,GI50,NCI-H23,60.5 µM (inactive)
same,GI50,T47D,77.1 µM (inactive)
same,GI50,DU-145,> 100 µM (inactive)
same,GI50,M14,64.1 µM (inactive)
same,GI50,OVCAR-5,> 100 µM (inactive)
same,GI50,HCT-116,37.7 µM (inactive)
same,GI50,LOX IMVI,39.2 µM (inactive)
same,GI50,SK-MEL-28,> 100 µM (inactive)
same,GI50,SK-MEL-2,> 100 µM (inactive)
same,GI50,KM12,47.2 µM (inactive)
same,GI50,MCF7,41.6 µM (inactive)
same,GI50,PC-3,> 100 µM (inactive)
same,GI50,SW-620,43.4 µM (inactive)
same,GI50,CAKI-1,24.8 µM (inactive)
same,GI50,MDA-MB-435,75.2 µM (inactive)
same,GI50,EKVX,39.4 µM (inactive)
same,GI50,HL-60,13.6 µM (inactive)
same,GI50,NCI-H226,> 100 µM (inactive)
same,GI50,HCT-15,23 µM
same,GI50,NCI/ADR-RES,44.4 µM (inactive)
same,GI50,NCI-H460,> 100 µM (inactive)
same,GI50,ACHN,46.2 µM (inactive)
same,GI50,HCC 2998,31.9 µM (inactive)
same,GI50,A549,> 100 µM (inactive)
same,GI50,SF-295,> 100 µM (inactive)
same,GI50,SF-539,69 µM (inactive)
same,GI50,U-251,63.1 µM (inactive)
same,GI50,IGROV-1,38.4 µM (inactive)
same,GI50,OVCAR-8,> 100 µM (inactive)
same,GI50,UACC-62,32.5 µM (inactive)
same,GI50,HT-29,89.9 µM (inactive)
same,GI50,SK-OV-3,> 100 µM (inactive)
COP1(=O)NCc2ncccc2O1 (stereo unspecified),GI50,BT-549,> 100 µM (inactive)
same,GI50,OVCAR-4,> 100 µM (inactive)
same,GI50,HOP-92,> 100 µM (inactive)
same,GI50,SNB-19,> 100 µM (inactive)
same,GI50,UACC-257,> 100 µM (inactive)
same,GI50,SN12C,> 100 µM (inactive)
same,GI50,SK-MEL-5,> 100 µM (inactive)
same,GI50,CCRF-CEM,> 100 µM (inactive)
same,GI50,COLO 205,> 100 µM (inactive)
same,GI50,HOP-62,> 100 µM (inactive)
same,GI50,OVCAR-3,> 100 µM (inactive)
same,GI50,MDA-MB-231,> 100 µM (inactive)
same,GI50,UO-31,> 100 µM (inactive)
same,GI50,SNB-75,> 100 µM (inactive)
same,GI50,A498,> 100 µM (inactive)
same,GI50,786-0,> 100 µM (inactive)
same,GI50,NCI-H23,> 100 µM (inactive)
same,GI50,T47D,> 100 µM (inactive)
same,GI50,DU-145,> 100 µM (inactive)
same,GI50,RPMI-8226,> 100 µM (inactive)
same,GI50,M14,> 100 µM (inactive)
same,GI50,OVCAR-5,> 100 µM (inactive)
same,GI50,HCT-116,> 100 µM (inactive)
same,GI50,RXF 393,> 100 µM (inactive)
same,GI50,LOX IMVI,> 100 µM (inactive)
same,GI50,SK-MEL-28,> 100 µM (inactive)
same,GI50,SK-MEL-2,> 100 µM (inactive)
same,GI50,MOLT-4,> 100 µM (inactive)
same,GI50,KM12,> 100 µM (inactive)
same,GI50,MCF7,> 100 µM (inactive)
same,GI50,SR,> 100 µM (inactive)
same,GI50,PC-3,> 100 µM (inactive)
same,GI50,SW-620,> 100 µM (inactive)
same,GI50,CAKI-1,> 100 µM (inactive)
same,GI50,MDA-MB-435,> 100 µM (inactive)
same,GI50,MDA-N,> 100 µM (inactive)
same,GI50,EKVX,> 100 µM (inactive)
same,GI50,NCI-H226,> 100 µM (inactive)
same,GI50,HCT-15,> 100 µM
same,GI50,NCI/ADR-RES,> 100 µM (inactive)
same,GI50,NCI-H460,> 100 µM (inactive)
same,GI50,ACHN,> 100 µM (inactive)
same,GI50,HCC 2998,> 100 µM (inactive)
same,GI50,A549,> 100 µM (inactive)
same,GI50,SF-295,> 100 µM (inactive)
same,GI50,K562,> 100 µM (inactive)
same,GI50,SF-539,> 100 µM (inactive)
same,GI50,U-251,> 100 µM (inactive)
same,GI50,IGROV-1,> 100 µM (inactive)
same,GI50,OVCAR-8,> 100 µM (inactive)
same,GI50,UACC-62,> 100 µM (inactive)
same,GI50,HT-29,> 100 µM (inactive)
C=CCN1C(=O)CS/C1=N/NC(=O)C(O)(c1ccccc1)c1ccccc1,GI50,OVCAR-4,> 10 µM (inactive)
same,GI50,HOP-92,> 10 µM (inactive)
same,GI50,SK-MEL-5,> 10 µM (inactive)
same,GI50,CCRF-CEM,> 10 µM (inactive)
same,GI50,SF-268,> 10 µM (inactive)
same,GI50,COLO 205,> 10 µM (inactive)
same,GI50,HOP-62,> 10 µM (inactive)
same,GI50,SNB-75,> 10 µM (inactive)
same,GI50,786-0,> 10 µM (inactive)
same,GI50,NCI-H23,> 10 µM (inactive)
same,GI50,T47D,> 10 µM (inactive)
same,GI50,RPMI-8226,> 10 µM (inactive)
same,GI50,M14,> 10 µM (inactive)
same,GI50,RXF 393,> 10 µM (inactive)
same,GI50,SK-MEL-28,> 10 µM (inactive)
same,GI50,SK-MEL-2,> 10 µM (inactive)
same,GI50,MOLT-4,> 10 µM (inactive)
same,GI50,MCF7,> 10 µM (inactive)
same,GI50,SR,> 10 µM (inactive)
same,GI50,SW-620,> 10 µM (inactive)
same,GI50,CAKI-1,> 10 µM (inactive)
same,GI50,MDA-MB-435,> 10 µM (inactive)
same,GI50,Malme-3M,> 10 µM (inactive)
same,GI50,HL-60,> 10 µM (inactive)
same,GI50,NCI/ADR-RES,> 10 µM (inactive)
same,GI50,NCI-H460,> 10 µM (inactive)
same,GI50,ACHN,> 10 µM (inactive)
same,GI50,A549,> 10 µM (inactive)
same,GI50,K562,> 10 µM (inactive)
same,GI50,U-251,> 10 µM (inactive)
same,GI50,IGROV-1,> 10 µM (inactive)
same,GI50,UACC-62,> 10 µM (inactive)
same,GI50,SK-OV-3,> 10 µM (inactive)
O=[N+]([O-])c1ccc(/C=N/Nc2nnc3c4ccccc4c4ncccc4c3n2)o1,GI50,UACC-257,> 10 µM (inactive)
same,GI50,SN12C,> 10 µM (inactive)
same,GI50,TK-10,> 10 µM (inactive)
same,GI50,SK-MEL-5,> 10 µM (inactive)
same,GI50,CCRF-CEM,> 10 µM (inactive)
same,GI50,SF-268,> 10 µM (inactive)
same,GI50,COLO 205,> 10 µM (inactive)
same,GI50,HOP-62,> 10 µM (inactive)
same,GI50,MDA-MB-231,> 10 µM (inactive)
same,GI50,SNB-75,> 10 µM (inactive)
same,GI50,786-0,> 10 µM (inactive)
same,GI50,NCI-H23,> 10 µM (inactive)
same,GI50,T47D,> 10 µM (inactive)
same,GI50,DU-145,> 10 µM (inactive)
same,GI50,RPMI-8226,> 10 µM (inactive)
same,GI50,M14,> 10 µM (inactive)
same,GI50,RXF 393,> 10 µM (inactive)
same,GI50,SK-MEL-28,> 10 µM (inactive)
same,GI50,MOLT-4,> 10 µM (inactive)
same,GI50,KM12,> 10 µM (inactive)
same,GI50,MCF7,> 10 µM (inactive)
same,GI50,SR,> 10 µM (inactive)
same,GI50,PC-3,> 10 µM (inactive)
same,GI50,SW-620,> 10 µM (inactive)
same,GI50,CAKI-1,> 10 µM (inactive)
same,GI50,MDA-N,> 10 µM (inactive)
same,GI50,EKVX,> 10 µM (inactive)
same,GI50,Malme-3M,> 10 µM (inactive)
same,GI50,HL-60,> 10 µM (inactive)
same,GI50,HCT-15,> 10 µM
same,GI50,HCC 2998,> 10 µM (inactive)
same,GI50,A549,> 10 µM (inactive)
same,GI50,SF-295,> 10 µM (inactive)
same,GI50,K562,> 10 µM (inactive)
same,GI50,IGROV-1,> 10 µM (inactive)
same,GI50,OVCAR-8,> 10 µM (inactive)
same,GI50,UACC-62,> 10 µM (inactive)
same,GI50,HT-29,> 10 µM (inactive)
same,GI50,SK-OV-3,> 10 µM (inactive)

# Reference: ChEMBL document CHEMBL1201862, “PubChem BioAssay data set” (2004)
